# Structures can show the parent of a compound that is named as a salt.
# Molecular target: T1, human B2 receptor (Homo sapiens, UniProt P30411)
# T1 construct: human B2 receptor expressed in human fibroblasts W138; endogenous in cells; host or cells: human fibroblasts W138 (WI-38)
# T1 sequence (P30411 1-391): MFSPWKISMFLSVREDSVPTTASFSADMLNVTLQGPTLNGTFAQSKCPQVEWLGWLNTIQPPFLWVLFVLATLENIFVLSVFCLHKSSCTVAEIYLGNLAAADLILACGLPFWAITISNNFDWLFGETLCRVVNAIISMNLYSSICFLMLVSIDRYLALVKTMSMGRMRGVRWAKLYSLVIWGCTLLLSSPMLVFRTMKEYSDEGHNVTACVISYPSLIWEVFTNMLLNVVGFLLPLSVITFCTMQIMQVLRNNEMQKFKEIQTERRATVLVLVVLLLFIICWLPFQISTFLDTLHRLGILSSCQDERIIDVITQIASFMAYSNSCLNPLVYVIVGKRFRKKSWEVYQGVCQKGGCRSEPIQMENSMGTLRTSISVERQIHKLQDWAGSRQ
# Assay: binding to the human B2 receptor expressed in human fibroblasts W138
# Conditions: not given
# Text: In the following the binding values are reported expressed as pKi.
row,Ki [nM],Compound
1,0.0794,CCN=C(NCC)NCCC[C@H](N)C(=O)N1CCN(C(=O)C2(NS(=O)(=O)c3ccc(Cl)c(COc4cccc5c(C)cc(C)nc45)c3Cl)CCCC2)CC1 [Example 44]
2,0.631,"Cc1cc(C)c2cccc(OCc3c(Cl)ccc(S(=O)(=O)NC(C)(C)C(=O)N4CCN(C(=O)[C@@H](N)CCCNC(=N)N)CC4)c3Cl)c2n1 [Example 48, N-[2-[4-(2-(S)-Amino-5-guanidino-pentanoyl)-piperazin-1-yl]-1,1-dimethyl-2-oxo-ethyl]-2,4-dichloro-3-(2,4-dimethyl-quinolin-8-yloxymethyl)-benzenesulfonamide]"
3,0.501,CCN=C(NCC)NCCC[C@H](N)C(=O)N1CCN(C(=O)C(C)(C)NS(=O)(=O)c2ccc(Cl)c(COc3cccc4ccc(C)nc34)c2Cl)CC1 [Example 41]
4,0.631,"Cc1cc(C)c2cccc(OCc3c(Cl)ccc(S(=O)(=O)NC4(C(=O)N5CCN(C(=O)[C@H](N)CCCCNC(=N)N)CC5)CCCC4)c3Cl)c2n1 [Example 64, N-[1-[4-(2-(R)-Amino-6-guanidino-hexanoyl)-piperazine-1-carbonyl]-cyclopentyl]-2,4-dichloro-3-(2,4-dimethyl-quinolin-8-yloxymethyl)-benzenesulfonamide tris trifluoroacetate]"
5,0.398,"Cc1ccc2cccc(OCc3c(Cl)ccc(S(=O)(=O)NC(C)(C)C(=O)N4CCN(C(=O)[C@H](N)CCCNC(=N)N)CC4)c3Cl)c2n1 [Example 51, N-[2-[4-(2-(R)-Amino-5-guanidino-pentanoyl)-piperazin-1-yl]-1,1-dimethyl-2-oxo-ethyl]-2,4-dichloro-3-(2-methyl-quinolin-8-yloxymethyl)-benzenesulfonamide]"

# Same assay, conditions: human B2 receptor expressed in human fibroblasts W138
row,Compound,pKi
1,"Cc1cc(C)c2cccc(OCc3c(Cl)ccc(S(=O)(=O)NC4(C(=O)N5CCN(C(=O)CCCCC[N+](C)(C)C)CC5)CCCC4)c3Cl)c2n1 [Example 91, N-{1-[4-(6-Trimethylammonium-hexanoyl)-piperazine-1-carbonyl]-cyclopentyl}-2,4-dichloro-3-(2,4-dimethyl-quinolin-8-yloxymethyl)-benzenesulfonamide bis trifluoroacetate]",9.3
2,Cc1cc(C)c2cccc(OCc3c(Cl)ccc(S(=O)(=O)N[C@H](C)C(C)C(=O)N4CCN(C(=O)C[C@H](CCCNC(=N)N)NC(=N)N)CC4)c3Cl)c2n1.O=C(O)C(F)(F)F.O=C(O)C(F)(F)F.O=C(O)C(F)(F)F (stereo partly drawn) [Example 73],9.2
3,"2,4-Dichloro-3-(2-methyl-quinolin-8-yloxymethyl)-benzenesulfinic acid {2-[4-(2-guanidino-ethyl)-piperazin-1-yl]-1,1-dimethyl-2-oxo-ethyl}-amide [Example 40]",9.7
4,"N-[1-[4-(2-(S)-Trimethylammonium-6-trimethylammonium-hexanoyl)-piperazin-1-yl]-cyclopentyl]-2,4-dichloro-3-(2,4-dimethyl-quinolin-8-yloxymethyl)-benzenesulfonamide tris trifluoroacetate [Example 88]",9.7
5,"N-[1-[4-(2-(S)-Dimethylamino-6-dimethylamino-hexanoyl)-piperazin-1-yl]-cyclopentyl]-2,4-dichloro-3-(2,4-dimethyl-quinolin-8-yloxymethyl)-benzenesulfonamide tris trifluoroacetate [Example 85]",9.3

# Same assay, conditions: human B2 receptor expressed in human fibroblasts W138; read-out: pKi (converted)
row,Ki [nM],Compound
1,0.631,"Cc1cc(C)c2cccc(OCc3c(Cl)ccc(S(=O)(=O)NC4(C(=O)N5CCN(C(=O)C[C@@H](O)C[N+](C)(C)C)CC5)CCCC4)c3Cl)c2n1 [Example 84, N-{1-[4-(3(R)-Hydroxy-4-trimethylammonium-butanoyl)-piperazine-1-carbonyl]-cyclopentyl}-2,4-dichloro-3-(2,4-dimethyl-quinolin-8-yloxymethyl)-benzenesulfonamide bis trifluoroacetate]"
2,0.398,"Cc1cc(C)c2cccc(OCc3c(Cl)ccc(S(=O)(=O)NC4(C(=O)N5CCN(CCN6CCNCC6)CC5)CCCC4)c3Cl)c2n1 [Example 100, 2,4-Dichloro-3-(2,4-dimethyl-quinolin-8-yloxymethyl)-N-{1-[4-(2-piperazin-1-yl-ethyl)-piperazine-1-carbonyl]-cyclopentyl}-benzenesulfonamide tetra trifluoroacetate]"
3,0.794,"Cc1cc(C)c2cccc(OCc3c(Cl)ccc(S(=O)(=O)NC4(C(=O)N5CCN(C(=N)NCCNCCCN)CC5)CCCC4)c3Cl)c2n1 [Example 96, N-[2-(3-Amino-propylamino)-ethyl]-4-{1-[2,4-dichloro-3-(2,4-dimethyl-quinolin-8-yloxymethyl)-benzenesulfonylamino]-cyclopentanecarbonyl}-piperazine-1-carboxamidine bis trifluoroacetate]"
4,0.501,"Cc1ccc2cccc(OCc3c(Cl)ccc(S(=O)(=O)NC(C)(C)C(=O)N4CCN(C(=O)CNC5CCNCC5)CC4)c3Cl)c2n1 [Example 26, N-{2-[4-[N-(4-Piperidyl)glycyl]-piperazin-1-yl]-1,1-dimethyl-2-oxo-ethyl}-2,4-dichloro-3-(2-methyl-8-quinolinoxymethyl)-benzenesulfonamide tris trifluoroacetate]"
5,0.794,"Cc1cc(C)c2cccc(OCc3c(Cl)ccc(S(=O)(=O)NC4(C(=O)N5CCN(C(=O)CCCCCNC(=N)N)CC5)CCCC4)c3Cl)c2n1 [Example 67, N-[1-[4-(6-Guanidino-hexanoyl)-piperazine-1-carbonyl]-cyclopentyl]-2,4-dichloro-3-(2,4-dimethyl-quinolin-8-yloxymethyl)-benzenesulfonamide bis trifluoroacetate]"
6,0.501,"Cc1cc(C)c2cccc(OCc3c(Cl)ccc(S(=O)(=O)NC(C)(C)C(=O)N4CCN(C(=O)C[C@@H](N)CCCN(C)C)CC4)c3Cl)c2n1 [Example 46, N-[2-[4-(3-(S)-Amino-6-dimethylamino-hexanoyl)-piperazin-1-yl]-1,1-dimethyl-2-oxo-ethyl]-2,4-dichloro-3-(2,4-dimethyl-quinolin-8-yloxymethyl)-benzenesulfonamide]"
7,0.398,"CC[C@@](C)(NS(=O)(=O)c1ccc(Cl)c(COc2cccc3c(C)cc(C)nc23)c1Cl)C(=O)N1CCN(C(=O)C[C@@H](N)CCCN)CC1 [Example 72, (R)—N-[4-(3-(S)-Amino-6-amino-hexanoyl)-piperazine-1-carbonyl]-1-methyl-propyl]-2,4-dichloro-3-(2,4-dimethyl-quinolin-8-yloxymethyl)-benzenesulfonamide tris trifluoroacetate]"
8,0.794,"CC[C@@](C)(NS(=O)(=O)c1ccc(Cl)c(COc2cccc3c(C)cc(C)nc23)c1Cl)C(=O)N1CCN(C(=O)C[C@@H](N)CCCN(C)C)CC1 [Example 74, (R)—N-[4-(3-(S)-Amino-6-dimethylamino-hexanoyl)-piperazine-1-carbonyl]-1-methyl-propyl]-2,4-dichloro-3-(2,4-dimethyl-quinolin-8-yloxymethyl)-benzenesulfonamide tris trifluoroacetate]"
